This is an account of results in patent publication US8796249B2, “TGR5 modulators and methods of use thereof” (Intercept Pharmaceuticals, Inc., priority 2008, dated 2014).

For orientation: EC50 means the concentration at which the effect is half-maximal. Lower therefore signals an effect from little substance.

Data set [1] deals with T1, hTGR5 (Homo sapiens, UniProt Q8TDU6).
T1 sequence (Q8TDU6 1-330): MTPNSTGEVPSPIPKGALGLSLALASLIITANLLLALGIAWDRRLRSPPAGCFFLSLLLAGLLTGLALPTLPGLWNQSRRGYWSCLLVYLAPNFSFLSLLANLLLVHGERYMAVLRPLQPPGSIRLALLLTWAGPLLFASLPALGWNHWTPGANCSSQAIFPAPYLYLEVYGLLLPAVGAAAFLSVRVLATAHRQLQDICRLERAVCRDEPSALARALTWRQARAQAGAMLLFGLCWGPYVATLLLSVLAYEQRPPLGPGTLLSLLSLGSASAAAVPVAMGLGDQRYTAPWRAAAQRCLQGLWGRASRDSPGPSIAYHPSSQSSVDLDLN
The experiment in a line: FRET (cAMP) level in NCI-H716 human intestinal cell line. It is filed as cell-based. On the procedure: EC50 values were determined by probit analysis.
(§1) The selectivity of compounds of the invention was evaluated using assay methods known in the art. Specifically, the following assay methods were used: • FXR and LXR: Coactivator Recruitment (alphascreen); • TGR5: cAMP level on human intestinal cell line (NCI-H716); • PXR: Ligands Competition assay (Binding Assay) • CAR: Coactivator Recruitment (Lanthascreen)

The target of data set [2] is T1, hTGR5. Nature of the data set: FRET-cAMP on TGR5 over-expressing HEH293 cells. The data set is classed as cell-based.
Experimental: Assays were performed in triplicate or quadruplicate for each condition. EC50 values were determined by probit analysis. […] After subtracting the average value of the basal (vehicle-treated) condition, values were applied to EC50 and/or efficacy determinations. Calculation of average EC50 and comparison of the EC50 between different compounds were done after transformation to logarithms.
The target in the next data set is T2, PXR (Homo sapiens, UniProt O75469).
T2 sequence (O75469 1-434): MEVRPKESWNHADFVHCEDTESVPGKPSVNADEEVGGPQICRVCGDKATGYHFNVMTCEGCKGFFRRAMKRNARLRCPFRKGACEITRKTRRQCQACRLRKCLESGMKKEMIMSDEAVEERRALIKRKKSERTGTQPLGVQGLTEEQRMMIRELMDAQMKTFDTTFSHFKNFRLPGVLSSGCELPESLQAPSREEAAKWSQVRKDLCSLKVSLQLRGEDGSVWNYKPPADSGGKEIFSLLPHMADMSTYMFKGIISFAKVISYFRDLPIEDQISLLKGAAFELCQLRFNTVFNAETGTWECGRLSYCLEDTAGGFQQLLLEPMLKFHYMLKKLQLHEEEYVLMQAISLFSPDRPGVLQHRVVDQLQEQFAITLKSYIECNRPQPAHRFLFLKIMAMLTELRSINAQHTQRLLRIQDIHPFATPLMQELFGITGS
Nature of the data set: PXR ligands competition assay (binding assay). How it is done: as §1

Another data set deals with T3, CAR (Homo sapiens, UniProt Q14994).
T3 sequence (Q14994 1-352): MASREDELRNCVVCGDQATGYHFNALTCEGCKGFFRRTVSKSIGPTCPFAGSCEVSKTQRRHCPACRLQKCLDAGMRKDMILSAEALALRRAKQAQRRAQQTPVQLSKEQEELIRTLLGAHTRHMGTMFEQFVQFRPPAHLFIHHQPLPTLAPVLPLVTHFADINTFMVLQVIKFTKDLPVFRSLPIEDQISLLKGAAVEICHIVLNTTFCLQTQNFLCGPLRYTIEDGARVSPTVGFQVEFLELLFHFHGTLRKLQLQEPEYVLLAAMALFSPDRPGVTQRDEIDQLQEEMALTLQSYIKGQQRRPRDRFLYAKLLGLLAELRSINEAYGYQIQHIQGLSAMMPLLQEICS
The experiment in a line: CAR coactivator recruitment (Lanthascreen). It is filed as biochemical. How it is done: as §1
For orientation: Time-resolved FRET reads energy transfer from a long-lived donor to a nearby acceptor.

A further data set has as its target T4, PPARδ (Homo sapiens, UniProt Q03181).
T4 sequence (Q03181 1-441): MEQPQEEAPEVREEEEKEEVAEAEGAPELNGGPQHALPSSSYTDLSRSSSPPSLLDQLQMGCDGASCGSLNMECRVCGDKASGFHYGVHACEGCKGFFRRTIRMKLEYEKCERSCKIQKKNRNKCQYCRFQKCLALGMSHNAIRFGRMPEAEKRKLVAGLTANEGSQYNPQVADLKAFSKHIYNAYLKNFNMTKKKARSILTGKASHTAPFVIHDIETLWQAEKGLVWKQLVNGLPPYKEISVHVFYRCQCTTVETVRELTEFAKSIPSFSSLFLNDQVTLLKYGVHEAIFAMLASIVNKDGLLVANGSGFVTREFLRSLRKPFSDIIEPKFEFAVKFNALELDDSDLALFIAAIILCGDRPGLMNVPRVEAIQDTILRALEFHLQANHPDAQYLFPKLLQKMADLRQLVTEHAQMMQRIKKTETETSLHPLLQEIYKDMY
The experiment in a line: NR selectivity assay PPARδ. As to conditions: unnamed ref standard 0.004 μM.

The nature of a further data set: Water solubility. The data set is classed as physicochemical. Particulars: for Ws (water solubility): BA as protonated species, 0.1 M HCl, pH 1, hs = highly soluble, not evaluated; for solubility in biological fluids: ionized even at low pH, physiological conditions. On the procedure: Solid compound (BA) was suspended in 5 ml of 0.1 M HCl. […] The flow rate was 150 μl/min. The mass spectrometry acquisition was performed in the multiple reaction monitoring mode using the ESI source in negative ionization. Water solubility was expressed as μmol/liter.
The water solubility was measured for the insoluble protonated species of carboxylated bile acids at a pH 1.

Data set [3] can be described thus: 1-Octanol/water partition coefficient (shake-flask). As to conditions: ionized species, pH 8. The data set is classed as physicochemical. How it is done:
Since the sulphate and sulphonated analogues are always ionised at all pH values the octanol/water partition coefficient was measured for all molecules in ionized form. 1-Octanol/water partition coefficient (log P) was evaluated using a conventional shake-flask procedure. […] The aqueous buffer was previously pre-saturated with 1-octanol, 5 ml of 1-octanol pre-saturated with water was then added and the samples were left to equilibrate for 2 weeks under continuous stirring at room temperature After centrifugation the two phases were carefully separated. BA concentration in the water phase was measured with HPLC-ESI ? MS/MS using C18 column (150 mm×2 mm i.d., 4 μm) and, as mobile phases, water containing 15 mM acetic acid pH 5 and acetonitrile. The flow rate was 150 μal/min and the column was maintained at 45° C. The mass spectrometry acquisition was performed in the multiple reaction monitoring mode using the ESI source in negative ionization.

Data set [4] in a line: HepG2 cell cytotoxicity, ATP decrease. It is filed as cell-based. Particulars: human. On the procedure: (§2) Compounds of the invention were evaluated for cytotoxicity using standard methods known in the art. Specifically, cytotoxicity was evaluated using HEPG2 cells and monitoring ATP decrease and determining the EC50 value. […]
Another data set deals with HepG2 cell. The experiment in a line: HepG2 cell cytotoxicity, ATP decrease. The data set is classed as cell-based. Particulars: human. How it is done:
as §2

A further data set deals with Intestinal Bacteria. Nature of the data set: In vitro metabolic stability in human stool culture. Particulars: human stool culture.

“And” between values parts separate entries of the source, which are not always exact repeats. Equal values may be shown once. Where a name gives a salt, the structure may show the parent alone. A value given as a limit tells only on which side of the number the result lay.

Experimental for Intestinal Bacteria: Homogenized fresh human stools (500 mg) were transferred into sterile vials to which 5 mL of sterilized chopped meat-glucose medium (Scott Lab., Fiskville, R.I.) was added. BA were then added at a final concentration of 0.05 mM. Vials were incubated at 37° C.; then, at 0, 1, 2, 4, 8 and 24 h after the addition of the BA, the reaction was stopped with 150 μL of 30% KOH. The samples were centrifuged at 3500 rpm for 10 min; from the supernatant the BA were isolated by C-18 solid-phase extraction and analyzed by TLC and HPLC-ES-MS/MS.
Thin-layer chromatography (TLC), utilizing silica gel 0.25 mm thickness plates (Merck, Darmstat, Germany), was employed as the first screening test. The solvent system used for the separation of conjugated BA was composed of propionic acid/isoamyl acetate/water/N-propanol (3:4:1:2, v/v/v/v; solvent I), and that of the unconjugated BA was acetic acid/carbon tetrachloride/isopropyl ether/isoamyl acetate/water/N-propanol/benzene (1:4:6:8:2:2, v/v/v/v/v/v; solvent II).

Regarding `CCC1C(O)C2C3CCC(C(C)CC(C)OS(=O)(=O)O)C3(C)CCC2C2(C)CCC(O)CC12` [Compound 2A, 3α,7α,23-trihydroxy-6α-ethyl-23(S)-methyl-24-nor-5β-cholan-23-sulfate Sodium Salt], the 50% effective concentration (EC50) at hTGR5 [1] was 1.6 ± 0.3 µM; on hTGR5 [2], 0.025 µM; on PXR, 21 µM; at CAR it was 84 µM; in data set [4] it was greater than 1000 µM; with HepG2 cell, greater than 1000 µM. Also, the “PPARδ EC50” value at PPARδ was “No”. In “Water solubility”, the “Ws (water solubility)” value is “hs”. The “solubility in biological fluids” value in “Water solubility” was “always soluble in all biological fluids”. Besides, the “LogPA- (1-octanol-water partition coefficient)” value in [3] worked out at 2.3. For the same molecule, the side chain stability entry in the data set with Intestinal Bacteria is on record as “quite stable”.

With `CC[C@H]1[C@@H](O)[C@@H]2[C@H](C[C@H](O)[C@]3(C)[C@@H]([C@H](C)CCCS(=O)(=O)[O-])CC[C@@H]23)[C@@]2(C)CC[C@@H](O)C[C@@H]12.[Na+]` [Compound 3A, 3α,7α,12α-trihydroxy-6α-ethyl-5β-cholan-24-sulfonate Sodium Salt], the EC50 at hTGR5 [1] was 0.7 ± 0.2 µM; on hTGR5 [2], 0.011 µM; at PXR, 150 µM; on CAR, greater than 250 µM; in [4], greater than 1000 µM; with HepG2 cell it was greater than 1000 µM. Besides, the “PPARδ EC50” value on PPARδ is “No”. The “Ws (water solubility)” value in “Water solubility” was “hs”. Moreover, the “solubility in biological fluids” value in “Water solubility” is recorded as “always soluble in all biological fluids”. The “LogPA- (1-octanol-water partition coefficient)” value in data set [3] (Sodium Salt) is 0.71 and 0.7. Moreover, in the data set with Intestinal Bacteria, the side chain stability result is given as “very stable”.
